From paper PMC11882969 (Nature Communications, 2025)
Where “and” joins values, the source holds several entries; their conditions need not be identical. Equal entries are not always repeated.

Target: hCB2 (Homo sapiens, UniProt P34972)
Assay: bioSensAll ebBRET signaling profiling, hCB2
Format: cell-based
Design: host or cells: HEK293SL cells, transient PEI transfection
Settings: for RE, relative efficacy: vs CP-55,940; for G13 hCB2 / G15 hCB2 / Gq hCB2 / Gs hCB2: raw signal
[1] = Log [Compound] (M) not printed (line after -13)

Sequence of hCB2 (P34972 whole entry): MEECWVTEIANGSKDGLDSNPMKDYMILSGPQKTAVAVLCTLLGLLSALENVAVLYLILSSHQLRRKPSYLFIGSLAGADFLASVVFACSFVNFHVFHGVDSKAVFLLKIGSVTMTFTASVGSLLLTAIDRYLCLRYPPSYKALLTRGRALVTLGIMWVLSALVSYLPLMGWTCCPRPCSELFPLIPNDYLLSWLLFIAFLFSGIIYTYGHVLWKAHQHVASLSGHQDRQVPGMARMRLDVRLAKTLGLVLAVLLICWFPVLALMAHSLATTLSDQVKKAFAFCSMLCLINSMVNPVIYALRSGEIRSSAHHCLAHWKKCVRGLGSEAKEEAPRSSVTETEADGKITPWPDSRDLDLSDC

For `COC(=O)[C@@](C)(NC(=O)c1cc(C)n(-c2cccc(C(F)(F)F)c2)n1)c1cccs1` [‘1350], the “Barr2+GRK2 hCB2” value (Log [Compound] (M) -4.22186) was 44.1172 and 39.7347, the “Gi1 hCB2” value (Log [Compound] (M) -4.22186) was 74.4771 and 77.5324 and the “Gi2 hCB2” value (Log [Compound] (M) -4.22186) was 66.5499. For the same compound, the “GoB hCB2” value (Log [Compound] (M) -4.22186) was 56.9391 and 70.3563, the “Gz hCB2” value (Log [Compound] (M) -4.22186) was 58.5774 and 64.6863 and the “Barr2+GRK2 hCB2” value (Log [Compound] (M) -4.63927) was 32.763 and 29.7899. For the same compound, the “Gi1 hCB2” value (Log [Compound] (M) -4.63927) was 72.942 and 75.6692, the “Gi2 hCB2” value (Log [Compound] (M) -4.63927) was 60.7879 and the “GoB hCB2” value (Log [Compound] (M) -4.63927) was 56.4664 and 67.1616. The “Gz hCB2” value (Log [Compound] (M) -4.63927) was 78.3049 and 53.5883, the “Barr2+GRK2 hCB2” value (Log [Compound] (M) -5.05788) was 29.8124 and 18.7956 and the “Gi1 hCB2” value (Log [Compound] (M) -5.05788) was 74.0429 and 76.6089. The “Gi2 hCB2” value (Log [Compound] (M) -5.05788) was 58.4001, the “GoB hCB2” value (Log [Compound] (M) -5.05788) was 54.53 and 64.4448 and the “Gz hCB2” value (Log [Compound] (M) -5.05788) was 66.9683 and 41.1092. The “Barr2+GRK2 hCB2” value (Log [Compound] (M) -5.47381) was 34.9292 and 20.8945, the “Gi1 hCB2” value (Log [Compound] (M) -5.47381) was 72.8179 and 79.0878 and the “Gi2 hCB2” value (Log [Compound] (M) -5.47381) was 60.2299. The “GoB hCB2” value (Log [Compound] (M) -5.47381) was 53.5084 and 63.1367, the “Gz hCB2” value (Log [Compound] (M) -5.47381) was 56.2566 and 45.2442 and the “Barr2+GRK2 hCB2” value (Log [Compound] (M) -5.89285) was 30.1859 and 15.2974. For the same compound, the “Gi1 hCB2” value (Log [Compound] (M) -5.89285) was 75.9346 and 71.3757, the “Gi2 hCB2” value (Log [Compound] (M) -5.89285) was 59.8925 and the “GoB hCB2” value (Log [Compound] (M) -5.89285) was 55.4448 and 59.3006. For the same compound, the “Gz hCB2” value (Log [Compound] (M) -5.89285) was 73.8416 and 43.9289, the “Barr2+GRK2 hCB2” value (Log [Compound] (M) -6.31878) was 31.1196 and 18.9955 and the “Gi1 hCB2” value (Log [Compound] (M) -6.31878) was 70.1509 and 73.9032. For the same compound, the “Gi2 hCB2” value (Log [Compound] (M) -6.31878) was 59.7627, the “GoB hCB2” value (Log [Compound] (M) -6.31878) was 55.1551 and 56.3448 and the “Gz hCB2” value (Log [Compound] (M) -6.31878) was 71.9968 and 45.6141. The “Barr2+GRK2 hCB2” value (Log [Compound] (M) -6.72585) was 25.5172 and 13.5483, the “Gi1 hCB2” value (Log [Compound] (M) -6.72585) was 69.1585 and 77.5649 and the “Gi2 hCB2” value (Log [Compound] (M) -6.72585) was 61.5795. For the same compound, the “GoB hCB2” value (Log [Compound] (M) -6.72585) was 54.5452 and 57.5649, the “Gz hCB2” value (Log [Compound] (M) -6.72585) was 45.4258 and 40.2871 and the “Barr2+GRK2 hCB2” value (Log [Compound] (M) -7.14267) was 30.2979 and 16.2969. The “Gi1 hCB2” value (Log [Compound] (M) -7.14267) was 65.6232 and 81.2265, the “Gi2 hCB2” value (Log [Compound] (M) -7.14267) was 58.2833 and the “GoB hCB2” value (Log [Compound] (M) -7.14267) was 51.8616 and 63.3506. For the same compound, the “Gz hCB2” value (Log [Compound] (M) -7.14267) was 50.5436 and 34.8285, the “Barr2+GRK2 hCB2” value (Log [Compound] (M) -7.55284) was 26.2642 and 26.7415 and the “Gi1 hCB2” value (Log [Compound] (M) -7.55284) was 64.5377 and 66.7095. The “Gi2 hCB2” value (Log [Compound] (M) -7.55284) was 59.5551, the “GoB hCB2” value (Log [Compound] (M) -7.55284) was 57.4727 and 58.7094 and the “Gz hCB2” value (Log [Compound] (M) -7.55284) was 50.2461 and 38.3305. For the same compound, the “Barr2+GRK2 hCB2” value (Log [Compound] (M) -8) was 20.9979 and 17.0465, the “Gi1 hCB2” value (Log [Compound] (M) -8) was 54.8465 and 52.1925 and the “Gi2 hCB2” value (Log [Compound] (M) -8) was 54.4549. The “GoB hCB2” value (Log [Compound] (M) -8) was 47.1654 and 53.6784, the “Barr2+GRK2 hCB2” value (Log [Compound] (M) -8.22186) was 23.9859 and 16.2469 and the “Gi1 hCB2” value (Log [Compound] (M) -8.22186) was 56.5677 and 32.8473. For the same compound, the “Gi2 hCB2” value (Log [Compound] (M) -8.22186) was 55.2855, the “GoB hCB2” value (Log [Compound] (M) -8.22186) was 43.0943 and 48.7228 and the “Gz hCB2” value (Log [Compound] (M) -8.22186) was 50.1568 and 46.2389. For the same compound, the “Gi1 hCB2” value (Log [Compound] (M) -8.39794) was 38.2861 and 47.0726, the “Gi2 hCB2” value (Log [Compound] (M) -8.39794) was 44.5921 and the “GoB hCB2” value (Log [Compound] (M) -8.39794) was 29.1733 and 38.4595. For the same compound, the “Gi1 hCB2” value (Log [Compound] (M) -8.68787) was 27.0908 and 14.9764, the “Gi2 hCB2” value (Log [Compound] (M) -8.68787) was 26.6573 and the “GoB hCB2” value (Log [Compound] (M) -8.68787) was 22.9675 and 22.9513. For the same compound, the “Gi2 hCB2” value (Log [Compound] (M) -9.15521) was 7.477, the “Gi2 hCB2” value (Log [Compound] (M) -9.61989) was -6.111 and the “Gi2 hCB2” value (Log [Compound] (M) -10.0969) was -9.55. For the same compound, the “Gi2 hCB2” value (Log [Compound] (M) -10.5529) was -9.589, the “Gi2 hCB2” value (Log [Compound] (M) -11.0177) was -8.914 and the “Gi2 hCB2” value (Log [Compound] (M) -11.4949) was -12.1971. The “Gi2 hCB2” value (Log [Compound] (M) -11.9208) was -11.8078, the “Gi2 hCB2” value (Log [Compound] (M) -12.3979) was -13.4949 and the “Gi2 hCB2” value (Log [Compound] (M) -12.8861) was -11.678. For the same compound, the “Gi2 hCB2” value (Log [Compound] (M) -13) was -15.0781, the “Gz hCB2” value (Log [Compound] (M) -13) was -3.497 and the “Barr2+GRK2 hCB2” value [1] was -10.739. The “GoB hCB2” value [1] was 0.1984, the “Gz hCB2” value [1] was 0.9754 and the “pEC50 [95% CI]” value (hCB2 Gi1) was 8.45 [8.4 – 8.5]. For the same compound, the “RE, relative efficacy” value (hCB2 Gi1) was 0.29, the “pEC50 [95% CI]” value (hCB2 Gi2) was 8.79 [8.7 – 8.9] and the “RE, relative efficacy” value (hCB2 Gi2) was 0.40. The “pEC50 [95% CI]” value (hCB2 GoB) was 8.58 [8.5 – 8.7], the “RE, relative efficacy” value (hCB2 GoB) was 0.40 and the “RE, relative efficacy” value (hCB2 Gz) was 0.22. For the same compound, the “RE, relative efficacy” value (hCB2 ßarr2+GRK2) was 0.92, the “G13 hCB2” value (Log [Compound] (M) -4.22186) was 370 and the “G15 hCB2” value (Log [Compound] (M) -4.22186) was 861. The “Gq hCB2” value (Log [Compound] (M) -4.22186) was 1817, the “Gs hCB2” value (Log [Compound] (M) -4.22186) was 9372 and the “G13 hCB2” value (Log [Compound] (M) -4.63927) was 318. For the same compound, the “G15 hCB2” value (Log [Compound] (M) -4.63927) was 875, the “Gq hCB2” value (Log [Compound] (M) -4.63927) was 1909 and the “Gs hCB2” value (Log [Compound] (M) -4.63927) was 9159. The “G13 hCB2” value (Log [Compound] (M) -5.05788) was 339.
